For series [1], the system named is barnyardgrass. Nature of the series: Test Example 2: herbicidal test for selectivity between rice and barnyardgrass (herbicidal effects). The conditions noted are these: barnyardgrass of 2-leaf stage, thirty days after application. The format is in vivo, Echinochloa crus-galli L. On the procedure: (§1) Into each 1/5000 are Wager pot, paddy soil was filled and puddled, then seeds of barnyardgrass were sown and grown until they reached 2-leaf stage. The barnyardgrass of 2-leaf stage was thinned out to adjust the number of barnyardgrass to fifteen per pot, and rice seedlings of 2-leaf stage were transplanted in the same pot. […] Thereafter, they were grown in a green house, and thirty days after the application, the herbicidal effects and phytotoxicity were evaluated in accordance with the standards as identified in Table 5.

The next series deals with Paddy rice. Nature of the series: Test Example 2: herbicidal test for selectivity between rice and barnyardgrass (phytotoxicity). The format is in vivo. The settings on record: transplanted rice seedlings of 2-leaf stage, thirty days after application. On the procedure:
as §1

The test system of series [2] is barnyardgrass. Nature of the series: Test Example 3: herbicidal test by upland soil treatment. The arrangement: key: 5: Withered; 4.5: Herbicidal effect (or phytotoxicity) in a range of 90 to 99%; 4: Herbicidal effect (or phytotoxicity) in a range of 80 to 89%; 3.5: Herbicidal effect (or phytotoxicity) in a range of 70 to 79%; 3: Herbicidal effect (or phytotoxicity) in a range of 60 to 69%; 2.5: Herbicidal effect (or phytotoxicity) in a range of 50 to 59%; 2: Herbicidal effect (or phytotoxicity) in a range of 40 to 49%; 1.5: Herbicidal effect (or phytotoxicity) in a range of 30 to 39%; 1: Herbicidal effect (or phytotoxicity) in a range of 20 to 29%; 0.5: Herbicidal effect (or phytotoxicity) in a range of 1 to 19%; 0: No herbicidal effect (or no phytotoxicity). The format is in vivo, Echinochloa crus-galli L. The settings on record: evaluated twenty days after application. From the text: (§2) Into each plastic pot of 600 cm^2, upland soil was filled, then seeds of barnyardgrass, crabgrass, green foxtail, redroot pigweed, rice flatsedge, rice, wheat, maize, soybean, cotton and sugar beet were sown, and they were covered with soil. A predetermined amount of the wettable powder prepared from the test compound in accordance with Formulation Example 3 and diluted with water, was uniformly applied to the surface of the soil at an application rate of 1000 liter/hectare by means of a small size spray. They were grown in a greenhouse, and twenty days after the application, the herbicidal effects and phytotoxicity were evaluated in accordance with the standards as identified in Table 5.

The test system of a further series is green foxtail. Described as above. The format is in vivo, Setaria viridis L. The arrangement: key: 5: Withered; 4.5: Herbicidal effect (or phytotoxicity) in a range of 90 to 99%; 4: Herbicidal effect (or phytotoxicity) in a range of 80 to 89%; 3.5: Herbicidal effect (or phytotoxicity) in a range of 70 to 79%; 3: Herbicidal effect (or phytotoxicity) in a range of 60 to 69%; 2.5: Herbicidal effect (or phytotoxicity) in a range of 50 to 59%; 2: Herbicidal effect (or phytotoxicity) in a range of 40 to 49%; 1.5: Herbicidal effect (or phytotoxicity) in a range of 30 to 39%; 1: Herbicidal effect (or phytotoxicity) in a range of 20 to 29%; 0.5: Herbicidal effect (or phytotoxicity) in a range of 1 to 19%; 0: No herbicidal effect (or no phytotoxicity). The settings on record: evaluated twenty days after application.
Text: as §2

The next series relates to maize. Nature of the series: Test Example 3: herbicidal test by upland soil treatment (phytotoxicity). The format is in vivo. Also on record: key: 5: Withered; 4.5: Herbicidal effect (or phytotoxicity) in a range of 90 to 99%; 4: Herbicidal effect (or phytotoxicity) in a range of 80 to 89%; 3.5: Herbicidal effect (or phytotoxicity) in a range of 70 to 79%; 3: Herbicidal effect (or phytotoxicity) in a range of 60 to 69%; 2.5: Herbicidal effect (or phytotoxicity) in a range of 50 to 59%; 2: Herbicidal effect (or phytotoxicity) in a range of 40 to 49%; 1.5: Herbicidal effect (or phytotoxicity) in a range of 30 to 39%; 1: Herbicidal effect (or phytotoxicity) in a range of 20 to 29%; 0.5: Herbicidal effect (or phytotoxicity) in a range of 1 to 19%; 0: No herbicidal effect (or no phytotoxicity). The settings on record: evaluated twenty days after application.
Text: as §2

For a further series, the system named is soybean. Described as above. The class given is in vivo. Also on record: key: 5: Withered; 4.5: Herbicidal effect (or phytotoxicity) in a range of 90 to 99%; 4: Herbicidal effect (or phytotoxicity) in a range of 80 to 89%; 3.5: Herbicidal effect (or phytotoxicity) in a range of 70 to 79%; 3: Herbicidal effect (or phytotoxicity) in a range of 60 to 69%; 2.5: Herbicidal effect (or phytotoxicity) in a range of 50 to 59%; 2: Herbicidal effect (or phytotoxicity) in a range of 40 to 49%; 1.5: Herbicidal effect (or phytotoxicity) in a range of 30 to 39%; 1: Herbicidal effect (or phytotoxicity) in a range of 20 to 29%; 0.5: Herbicidal effect (or phytotoxicity) in a range of 1 to 19%; 0: No herbicidal effect (or no phytotoxicity). The settings on record: evaluated twenty days after application.
Text: as §2

A further series concerns wheat. The series is described as above. The class given is in vivo. The arrangement: key: 5: Withered; 4.5: Herbicidal effect (or phytotoxicity) in a range of 90 to 99%; 4: Herbicidal effect (or phytotoxicity) in a range of 80 to 89%; 3.5: Herbicidal effect (or phytotoxicity) in a range of 70 to 79%; 3: Herbicidal effect (or phytotoxicity) in a range of 60 to 69%; 2.5: Herbicidal effect (or phytotoxicity) in a range of 50 to 59%; 2: Herbicidal effect (or phytotoxicity) in a range of 40 to 49%; 1.5: Herbicidal effect (or phytotoxicity) in a range of 30 to 39%; 1: Herbicidal effect (or phytotoxicity) in a range of 20 to 29%; 0.5: Herbicidal effect (or phytotoxicity) in a range of 1 to 19%; 0: No herbicidal effect (or no phytotoxicity). The conditions noted are these: evaluated twenty days after application.
Text: as §2

As to `CC(C)N(C)C(=O)NOc1cc(Cl)cc(Cl)c1` [Compound No. 186, 3-(3,5-Dichlorophenoxy)-1-isopropyl-1-methyl urea trichloroacetate], the “Herbicidal effects Barnyard grass” value in the series on barnyardgrass [1] (Dose 0.25 kg/Ha) and with barnyardgrass [1] (Dose 0.5 kg/Ha) was 5 each time. The “Phytotoxicity Paddy rice” value with Paddy rice (Dose 0.25 kg/Ha) is reported as 0; in the series on Paddy rice (Dose 0.5 kg/Ha), 1 (Herbicidal effect (or phytotoxicity) in a range of 20 to 29%). Moreover, the “Herbicidal effects Barnyard-grass” value with barnyardgrass [2] (Dose 1 kg/HA) and with barnyardgrass [2] (Dose 4 kg/HA) was 5 throughout.

Take `COCCNC(=O)NOc1cc(Cl)ccc1Cl` [Compound No. 243]: the “Herbicidal effects Barnyard-grass” value in the series with barnyardgrass [2] (Dose 1 kg/HA) and in the series with barnyardgrass [2] (Dose 4 kg/HA) was 5 in each case.

Take `CN(C)C(=O)NOc1cc(Cl)ccc1Cl` [Compound No. 1, 3-(2,5-Dichlorophenoxy)-1,1-dimethyl urea]: the “Herbicidal effects Barnyard grass” value in the series on barnyardgrass [1] (Dose 0.25 kg/Ha), in the series with barnyardgrass [1] (Dose 0.5 kg/Ha) and in the series on barnyardgrass [1] (Dose 1 kg/Ha) was 5 in each case. Moreover, the “Phytotoxicity Paddy rice” value in the series on Paddy rice (Dose 0.25 kg/Ha) was 0; in the series on Paddy rice (Dose 0.5 kg/Ha) it was 0; with Paddy rice (Dose 1 kg/Ha), 1 (Herbicidal effect (or phytotoxicity) in a range of 20 to 29%). The “Herbicidal effects Barnyard-grass” value in the series on barnyardgrass [2] (Dose 1 kg/HA) and in the series on barnyardgrass [2] (Dose 4 kg/HA) was 5 throughout. In addition, the “Herbicidal effects Green foxtail” value with green foxtail (Dose 1 kg/HA) and in the series on green foxtail (Dose 4 kg/HA) was 5 in each case. The “Phytotoxicity Maize” value in the series with maize (Dose 1 kg/HA) and in the series with maize (Dose 4 kg/HA) was 0 in each case. The “Phytotoxicity Soybean” value with soybean (Dose 1 kg/HA) and in the series with soybean (Dose 4 kg/HA) was 0 each time. Besides, the “Phytotoxicity Wheat” value in the series with wheat (Dose 1 kg/HA) and in the series on wheat (Dose 4 kg/HA) was 0 throughout.

Take `CON(C)C(=O)NOc1cc(Cl)ccc1Cl` [Compound No. 242, 3-(2,5-Dichlorophenoxy)-1-methoxy-1-methyl urea]: the “Herbicidal effects Barnyard-grass” value in the series on barnyardgrass [2] (Dose 1 kg/HA) and with barnyardgrass [2] (Dose 4 kg/HA) was 5 throughout.

Values taken from patent EP0183174A2, “Substituted phenoxy urea, processes for its preparation and herbicide containing it as active ingredient” (KUMIAI CHEMICAL INDUSTRY CO., LTD., priority 1984, dated 1986).
